Experimental data taken from US12528813B2, “Substituted imidazo[4,5-b]pyridines as M3 receptor PAMs” (NIPPON SHINYAKU CO., LTD., priority 2019, dated 2026).

Tests used:
anesthetized rats [1] = assay: Effect on increase in intravesical pressure induced by pelvic nerve electrical stimulation in anesthetized rats; assay type: in vivo, rat; settings: anesthetized SD female rats; for Ratio of Change Rc of AUC of increase in intravesical pressure (maximum during 1 hour after administration) / change in vivo at 0.3 mg/kg: test compound 0.3 mg/kg intravenous, single dose; for change in vivo at 0.3 mg/kg: Rattus norvegicus, 1 h, read-out: Ratio of Change Rc of AUC of increase in intravesical pressure (maximum during 1 hour after administration)
Procedure: As the action of nerve stimulation-dependent bladder contraction in vivo, the action of the test compound on increase in intravesical pressure induced by pelvic nerve electrical stimulation using rats was measured by the following method.
SD female rats (Japan SLC, Inc.) were anesthetized by subcutaneously administering 1200 mg/kg of urethane (manufactured by Fujifilm Wako Pure Chemical Industries, Ltd.), and then the lower abdomen of each rat was incised at the midline. After the ureters on both sides were ligated and cut, a cannula for measuring intravesical pressure (PE-60, manufactured by BECTON DICKINSON) was inserted into the bladder through the external urethral orifice and fixed with sutures. After about 200 μL of saline was injected via the cannula inserted into the bladder, the other end of the cannula was connected to a pressure transducer to measure intravesical pressure.
The pelvic nerve near the bladder of the rat was separated under stereomicroscope observation and an electrode for nerve stimulation (K2-14015M-PT, manufactured by BrainScience idea. Co., Ltd.) was attached. The peritoneal cavity of the rat was filled with liquid paraffin (26114-75, NACALAI TESQUE, INC.). After the postoperative rest period, the pelvic nerve was electrically stimulated to cause an increase in intravesical pressure, using an electrical stimulator (SEN-7203, manufactured by NIHON KOHDEN CORPORATION). At this time, the stimulation frequency was set to 8 Hz, the pulse width was set to 0.3 ms, and the stimulation time was set to 10 seconds. The voltage of the electrical stimulator was adjusted such that the increase in intravesical pressure was about 50% to 70% of that at stimulation with 10 V.
Then, the electric stimulation was repeated at an interval of 10 minutes. After the increase in intravesical pressure induced by electric stimulation was stabilized three times or more, a test compound (dosage 0.3 mg/kg), distigmine bromide (dosage 0.03, 0.1 mg/kg), or a vehicle was intravenously administered at a single dosage of 1.0 mL/kg via a catheter placed into a femoral vein, and the effect of the test compound on increase in intravesical pressure was measured for 1 hour. Saline was used as a vehicle, and the test compound was dissolved in dimethylsulfoxide and then added to the vehicle. At this time, the final concentration of dimethylsulfoxide was set to 10%.
The response data (intravesical pressure) were imported to a personal computer via a data collection and analysis system (PowerLab (registered trademark), manufactured by ADInstruments) and analyzed using analysis software (LabChart (registered trademark), manufactured by ADInstruments). For each electric stimulation, AUC of the increase in intravesical pressure (area under the curve of plot of intravesical pressure) was calculated, and a ratio of change Rc (unit: %) with respect to the value (AUC) before administering the test compound was calculated according to the following equation (2). In the equation (2), Ab denotes AUC before administering the test compound, and Aa denotes AUC after administering the test compound. In addition, the maximum effect observed during 1 hour after administering the test compound (maximum ratio of change Rc) was defined as the effect of the test compound. The higher the ratio of change Rc, the higher the effect of enhancing bladder contraction force and the higher the effect of increasing intravesical pressure. Rc=100×(Aa−Ab)/Ab (2)

anesthetized rats [2] = assay: as above; assay type: in vivo, rat; settings: intravenous, 0.1 mg/kg

Structure (SMILES)	change in vivo at 0.3 mg/kg (anesthetized rats [1])	further results
COCC1(CN(C)c2cc(-c3cnc(C4CC4)c(C(F)(F)F)c3)nc3nc(NC(=O)c4ccc(C5CC5C(=O)O)cn4)[nH]c23)CCCC1 (stereo not drawn) [Compound 49]		Ratio of Change Rc of AUC of increase in intravesical pressure (maximum during 1 hour after administration) (anesthetized rats [1]): 43.6%
COCC1(CN(C)c2cc(-c3cnc(C4CC4)c(C(F)(F)F)c3)nc3nc(NC(=O)c4cn(C[C@@H](C)C(=O)O)cn4)[nH]c23)CCCC1 [Compound 53]		Ratio of Change Rc of AUC of increase in intravesical pressure (maximum during 1 hour after administration) (anesthetized rats [1]): 50.2%
COCC1(CN(C)c2cc(-c3cnc(C4CC4)c(C(F)(F)F)c3)nc3nc(NC(=O)c4ccc(CCC(=O)O)cn4)[nH]c23)CCCC1 [Example 1, 3-[6-({5-[6-Cyclopropyl-5-(trifluoromethyl)pyridin-3-yl]-7-({[1-(methoxymethyl)cyclopentyl]methyl}(methyl)amino)-1H-imidazo[4,5-b]pyridin-2-yl}carbamoyl)pyridin-3-yl]propanoic acid]	55.3%	
CCOc1cc(-c2cc(N(C)CC3(COC)CCCC3)c3[nH]c(NC(=O)c4ccc(CCC(=O)O)cn4)nc3n2)cc(C(F)(F)F)n1 [Example 2, 3-[6-({5-[2-Ethoxy-6-(trifluoromethyl)pyridin-4-yl]-7-({[1-(methoxymethyl)cyclopentyl]methyl}(methyl)amino)-1H-imidazo[4,5-b]pyridin-2-yl}carbamoyl)pyridin-3-yl]propanoic acid]	36.5%	
COCC1(CN(C)c2cc(-c3cc(C4CC4)nc(C(F)(F)F)c3)nc3nc(NC(=O)c4ccc(CCC(=O)O)cn4)[nH]c23)CCCC1 [Example 3, 3-[6-({5-[2-Cyclopropyl-6-(trifluoromethyl)pyridin-4-yl]-7-({[1-(methoxymethyl)cyclopentyl]methyl}(methyl)amino)-1H-imidazo[4,5-b]pyridin-2-yl}carbamoyl)pyridin-3-yl]propanoic acid]	28.5%	
COCC1(CN(C)c2cc(-c3cnc(C4CC4)c(C(F)(F)F)c3)nc3nc(NC(=O)c4ccc(CC(C)C(=O)O)cn4)[nH]c23)CCCC1 (stereo not drawn) [Example 4, 3-[6-({5-[6-Cyclopropyl-5-(trifluoromethyl)pyridin-3-yl]-7-({[1-(methoxymethyl)cyclopentyl]methyl}(methyl)amino)-1H-imidazo[4,5-b]pyridin-2-yl}carbamoyl)pyridin-3-yl]-2-methylpropanoic acid]	89.5%	
COCC1(CN(C)c2cc(-c3cnc(C4CC4)c(C(F)(F)F)c3)nc3nc(NC(=O)c4cn5c(n4)CCC(C(=O)O)C5)[nH]c23)CCCC1 (stereo not drawn) [Example 5, 2-({5-[6-Cyclopropyl-5-(trifluoromethyl)pyridin-3-yl]-7-({[1-(methoxymethyl)cyclopentyl]methyl}(methyl)amino)-1H-imidazo[4,5-b]pyridin-2-yl}carbamoyl)-5,6,7,8-tetrahydroimidazo[1,2-a]pyridine-6-carboxylic acid]	49.1%	
COCC1(CN(C)c2cc(-c3cnc(C4CC4)c(C(F)(F)F)c3)nc3nc(NC(=O)c4ccc(CN(C)CC(=O)O)cn4)[nH]c23)CCCC1 [Example 6]	55.1%	
COCC1(CN(C)c2cc(-c3cnc(C4CC4)c(C(F)(F)F)c3)nc3nc(NC(=O)c4cn(CCCC(=O)O)cn4)[nH]c23)CCCC1 [Example 7, 4-[4-({5-[6-Cyclopropyl-5-(trifluoromethyl)pyridin-3-yl]-7-({[1-(methoxymethyl)cyclopentyl]methyl}(methyl)amino)-1H-imidazo[4,5-b]pyridin-2-yl}carbamoyl)-1H-imidazol-1-yl]butanoic acid]	41.8%	
COCC1(CN(C)c2cc(-c3cnc(C4CC4)c(C(F)(F)F)c3)nc3nc(NC(=O)c4ccc(CCCC(=O)O)cn4)[nH]c23)CCCC1 [Example 8, 4-[6-({5-[6-Cyclopropyl-5-(trifluoromethyl)pyridin-3-yl]-7-({[1-(methoxymethyl)cyclopentyl]methyl}(methyl)amino)-1H-imidazo[4,5-b]pyridin-2-yl}carbamoyl)pyridin-3-yl]butanoic acid]	85.7%	
CCOc1cc(-c2cc(N(C)CC3(COC)CCCC3)c3[nH]c(NC(=O)c4cc5c(cn4)CN(CCC(=O)O)CC5)nc3n2)cc(C(F)(F)F)n1 [Example 9]	44%	
COCC1(CN(C)c2cc(-c3cc(C4CC4)nc(C(F)(F)F)c3)nc3nc(NC(=O)c4cc5c(cn4)CN(CCC(=O)O)CC5)[nH]c23)CCCC1 [Example 10, 3-[6-({5-[2-Cyclopropyl-6-(trifluoromethyl)pyridin-4-yl]-7-({[1-(methoxymethyl)cyclopentyl]methyl}(methyl)amino)-1H-imidazo[4,5-b]pyridin-2-yl}carbamoyl)-1,2,3,4-tetrahydro-2,7-naphthyridin-2-yl]propanoic acid]	33.7%	
COCC1(CN(C)c2cc(-c3cnc(C4CC4)c(C(F)(F)F)c3)nc3nc(NC(=O)c4ccc(CCCC(=O)O)cn4)[nH]c23)CCCCC1 [Example 11, 4-[6-({5-[6-Cyclopropyl-5-(trifluoromethyl)pyridin-3-yl]-7-({[1-(methoxymethyl)cyclohexyl]methyl}(methyl)amino)-1H-imidazo[4,5-b]pyridin-2-yl}carbamoyl)pyridin-3-yl]butanoic acid]	80.7%	
CCOc1ncc(-c2cc(N(C)CC3(COC)CCCC3)c3[nH]c(NC(=O)c4ccc(CCCC(=O)O)cn4)nc3n2)cc1C(F)(F)F [Example 12, 4-[6-({5-[6-Ethoxy-5-(trifluoromethyl)pyridin-3-yl]-7-({[1-(methoxymethyl)cyclopentyl]methyl}(methyl)amino)-1H-imidazo[4,5-b]pyridin-2-yl}carbamoyl)pyridin-3-yl]butanoic acid]	53.4%	
CCOc1ncc(-c2cc(N(C)CC3(COC)CCCCC3)c3[nH]c(NC(=O)c4ccc(CCC(=O)O)cn4)nc3n2)cc1C(F)(F)F [Example 13]	113%	
CCOc1ncc(-c2cc(N(C)CC3(COC)CCCCC3)c3[nH]c(NC(=O)c4ccc(CCCC(=O)O)cn4)nc3n2)cc1C(F)(F)F [Example 14, 4-[6-({5-[6-Ethoxy-5-(trifluoromethyl)pyridin-3-yl]-7-({[1-(methoxymethyl)cyclohexyl]methyl}(methyl)amino)-1H-imidazo[4,5-b]pyridin-2-yl}carbamoyl)pyridin-3-yl]butanoic acid]	70.4%	
CN(CCCCCCN(C)C(=O)Oc1ccc[n+](C)c1)C(=O)Oc1ccc[n+](C)c1 [distigmine bromide, reference compound]		effect of enhancing bladder contraction force (anesthetized rats [1]; intravenous, test compound 0.3 mg/kg, distigmine bromide 0.03, 0.1 mg/kg): exhibited an effect of enhancing bladder contraction force; nicotinic side effect (fasciculation) (anesthetized rats [2]): a nicotinic side effect (fasciculation) was observed
